The source of these data is US8901159B2, “Inhibition of inflammation by simultaneous blockade of multiple prostanoid receptors” (Allergan, Inc., priority 2010, dated 2014).

Experiment [1] has as its target T1, human prostanoid FP receptor (Homo sapiens, UniProt P43088).
T1 construct: expressed in transfected cells
Nature of the experiment: PG antagonist activity, Ca2+ signal in human recombinant prostanoid receptor stable cell line. In kind it is cell-based. The conditions noted are these: parameter and unit not given. As for the experimental part:
(§1) The above compounds were tested for PG antagonist activity as follows using human recombinant prostanoid receptor (DP1, EP1-4, FP, IP and TP) stable cell lines:
(§2) In order to measure the response of Gs and Gi coupled prostanoid receptors as a Ca^2+ signal, chimeric G protein cDNAs were used. Stable cell lines over-expressing human prostanoid DP1, EP1-4, FP, IP, and TP receptors were established as described in U.S. Ser. No. 61/410,153.

Experiment [2] concerns the target T2, human prostanoid EP4 receptor (Homo sapiens, UniProt P35408).
T2 construct: expressed in transfected cells
Described as above. In kind it is cell-based. To be noted: parameter and unit not given. As for the experimental part: as §1, §2

The target of experiment [3] is T3, human prostanoid TP receptor (Homo sapiens, UniProt P21731).
T3 construct: expressed in transfected cells
T3 sequence (P21731 1-343): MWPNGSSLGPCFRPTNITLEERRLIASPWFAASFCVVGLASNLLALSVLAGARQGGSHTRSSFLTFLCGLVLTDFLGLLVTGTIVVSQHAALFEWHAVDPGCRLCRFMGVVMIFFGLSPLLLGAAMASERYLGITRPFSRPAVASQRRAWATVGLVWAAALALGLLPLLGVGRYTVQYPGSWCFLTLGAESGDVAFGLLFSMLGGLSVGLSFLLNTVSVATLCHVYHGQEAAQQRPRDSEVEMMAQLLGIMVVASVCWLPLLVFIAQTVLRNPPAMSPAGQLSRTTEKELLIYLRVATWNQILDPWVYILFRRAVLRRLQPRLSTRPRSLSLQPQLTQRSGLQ
Described as above. The conditions noted are these: parameter and unit not given. The format is cell-based. As for the experimental part: as §1, §2

Experiment [4] addresses T4, human prostanoid EP1 receptor (Homo sapiens, UniProt P34995).
T4 construct: expressed in transfected cells
T4 sequence (P34995 1-402): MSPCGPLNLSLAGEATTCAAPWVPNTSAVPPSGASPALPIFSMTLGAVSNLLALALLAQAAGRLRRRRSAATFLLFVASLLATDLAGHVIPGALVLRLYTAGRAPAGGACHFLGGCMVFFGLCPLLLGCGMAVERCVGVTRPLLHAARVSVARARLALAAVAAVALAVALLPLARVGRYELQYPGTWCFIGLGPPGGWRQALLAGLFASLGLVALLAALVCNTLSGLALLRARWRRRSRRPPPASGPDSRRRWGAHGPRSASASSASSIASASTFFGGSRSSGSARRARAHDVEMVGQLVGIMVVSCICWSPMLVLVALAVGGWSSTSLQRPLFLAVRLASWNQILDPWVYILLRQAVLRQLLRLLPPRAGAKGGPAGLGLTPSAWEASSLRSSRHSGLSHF
Described as above. In kind it is cell-based. To be noted: parameter and unit not given. As for the experimental part: as §1, §2

Experiment [5] deals with T5, human prostanoid DP1 receptor (Homo sapiens, UniProt Q13258).
T5 construct: expressed in transfected cells
T5 sequence (Q13258 1-359): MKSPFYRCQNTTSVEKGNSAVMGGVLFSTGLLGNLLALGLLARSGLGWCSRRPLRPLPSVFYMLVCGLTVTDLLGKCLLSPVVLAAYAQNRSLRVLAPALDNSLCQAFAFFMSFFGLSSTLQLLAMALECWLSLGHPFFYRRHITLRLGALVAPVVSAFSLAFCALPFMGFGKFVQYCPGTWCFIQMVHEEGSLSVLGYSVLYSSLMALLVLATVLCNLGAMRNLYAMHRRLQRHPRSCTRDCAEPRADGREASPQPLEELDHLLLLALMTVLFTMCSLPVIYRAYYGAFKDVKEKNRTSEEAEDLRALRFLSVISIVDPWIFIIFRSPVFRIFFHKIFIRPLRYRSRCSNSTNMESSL
The description is as above. The format is cell-based. The conditions noted are these: parameter and unit not given. As for the experimental part:
as §1, §2

The subject of experiment [6] is human recombinant prostanoid receptor (DP1, EP1-4, FP, IP and TP). In words: Prostanoid receptor blockade profile stated in words. In kind it is cell-based. As for the experimental part:
as §1, §2

Experiment [7] deals with T6, human prostanoid EP2 receptor (Homo sapiens, UniProt P43116).
T6 construct: expressed in transfected cells
Nature of the experiment: PG antagonist activity, Ca2+ signal in human recombinant prostanoid receptor stable cell line. The conditions noted are these: parameter and unit not given. In kind it is cell-based. As for the experimental part:
as §1, §2

Experiment [8] addresses T7, human prostanoid EP3 receptor (Homo sapiens, UniProt P43115).
T7 construct: expressed in transfected cells
T7 sequence (P43115 1-390): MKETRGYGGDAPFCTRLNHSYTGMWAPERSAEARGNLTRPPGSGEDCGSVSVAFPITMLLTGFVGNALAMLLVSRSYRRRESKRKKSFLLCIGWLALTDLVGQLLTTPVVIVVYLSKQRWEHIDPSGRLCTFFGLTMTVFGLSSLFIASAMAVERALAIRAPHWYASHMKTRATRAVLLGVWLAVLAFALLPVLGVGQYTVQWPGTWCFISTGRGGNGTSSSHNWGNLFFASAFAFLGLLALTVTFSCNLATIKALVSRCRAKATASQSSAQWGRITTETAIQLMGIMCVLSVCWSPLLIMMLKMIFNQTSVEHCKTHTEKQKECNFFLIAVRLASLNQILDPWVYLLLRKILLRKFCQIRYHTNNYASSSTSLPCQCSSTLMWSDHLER
The description is as above. In kind it is cell-based. The conditions noted are these: parameter and unit not given. As for the experimental part: as §1, §2

Experiment [9] deals with T8, human prostanoid IP receptor (Homo sapiens, UniProt P43119).
T8 construct: expressed in transfected cells
Described as above. The format is cell-based. To be noted: parameter and unit not given. As for the experimental part: as §1, §2

In experiment [10] the test system is Experimental autoimmune uveoretinitis (EAU). Nature of the experiment: Rat Experimental Autoimmune Uveoretinitis (EAU) model. The conditions noted are these: FIG. 14. In kind it is in vivo.
Experiment [11] relates to laser-induced neovascularization (CNV). Nature of the experiment: Rat laser-induced neovascularization (CNV) model. To be noted: formulated in 70% PEG, FIG. 15, vs vehicle, EXAMPLE 8, SC-51322 and their combination. The format is in vivo. As for the experimental part: The compound of Example 1 was also evaluated for activity in an in-vivo Rat laser-induced neovascularization (CNV) model.
In this test, compounds were formulated in 70% polyethylene glycol (PEG). CNV is induced by laser burn.

For experiment [12], the system named is human recombinant prostanoid receptor (DP1, EP1-4, FP, IP and TP). The conditions noted are these: stated in words; IUPHAR database referred to; cited from earlier work.
Setting [13] is: rat EAU, vs all of the comparators.

T1 sequence (P43088 whole entry): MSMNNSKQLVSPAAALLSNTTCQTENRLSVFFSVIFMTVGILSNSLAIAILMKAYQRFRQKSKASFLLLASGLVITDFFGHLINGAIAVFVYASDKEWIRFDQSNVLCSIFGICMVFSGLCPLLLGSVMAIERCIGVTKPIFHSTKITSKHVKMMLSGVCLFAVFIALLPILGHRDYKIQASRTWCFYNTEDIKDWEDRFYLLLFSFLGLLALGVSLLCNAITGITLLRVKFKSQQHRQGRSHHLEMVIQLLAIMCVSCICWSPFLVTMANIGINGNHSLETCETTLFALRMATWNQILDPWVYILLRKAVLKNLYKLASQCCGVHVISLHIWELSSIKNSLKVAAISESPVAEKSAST
T2 sequence (P35408 whole entry): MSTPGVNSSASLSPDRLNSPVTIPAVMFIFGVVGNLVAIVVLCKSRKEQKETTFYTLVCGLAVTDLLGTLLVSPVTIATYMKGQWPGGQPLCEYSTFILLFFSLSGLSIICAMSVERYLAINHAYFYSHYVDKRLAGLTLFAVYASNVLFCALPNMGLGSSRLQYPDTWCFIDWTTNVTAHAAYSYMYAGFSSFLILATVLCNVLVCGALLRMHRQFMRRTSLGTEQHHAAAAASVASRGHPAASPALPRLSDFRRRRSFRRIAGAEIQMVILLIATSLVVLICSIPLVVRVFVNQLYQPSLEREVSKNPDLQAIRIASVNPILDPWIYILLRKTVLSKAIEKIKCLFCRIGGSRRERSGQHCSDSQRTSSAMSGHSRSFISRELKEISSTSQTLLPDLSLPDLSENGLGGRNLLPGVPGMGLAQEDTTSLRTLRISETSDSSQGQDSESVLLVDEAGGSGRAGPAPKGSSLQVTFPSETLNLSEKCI
T8 sequence (P43119 whole entry): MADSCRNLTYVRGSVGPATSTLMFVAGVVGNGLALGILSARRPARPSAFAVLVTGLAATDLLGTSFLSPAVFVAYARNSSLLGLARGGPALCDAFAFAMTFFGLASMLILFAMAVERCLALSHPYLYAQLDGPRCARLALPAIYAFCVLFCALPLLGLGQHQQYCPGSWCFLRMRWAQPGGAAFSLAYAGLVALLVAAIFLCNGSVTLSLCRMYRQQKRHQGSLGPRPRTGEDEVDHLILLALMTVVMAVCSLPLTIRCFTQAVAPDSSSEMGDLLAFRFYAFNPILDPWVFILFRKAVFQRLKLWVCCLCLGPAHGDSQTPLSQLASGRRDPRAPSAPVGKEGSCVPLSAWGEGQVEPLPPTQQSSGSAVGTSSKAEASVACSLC
T6 sequence (P43116 whole entry): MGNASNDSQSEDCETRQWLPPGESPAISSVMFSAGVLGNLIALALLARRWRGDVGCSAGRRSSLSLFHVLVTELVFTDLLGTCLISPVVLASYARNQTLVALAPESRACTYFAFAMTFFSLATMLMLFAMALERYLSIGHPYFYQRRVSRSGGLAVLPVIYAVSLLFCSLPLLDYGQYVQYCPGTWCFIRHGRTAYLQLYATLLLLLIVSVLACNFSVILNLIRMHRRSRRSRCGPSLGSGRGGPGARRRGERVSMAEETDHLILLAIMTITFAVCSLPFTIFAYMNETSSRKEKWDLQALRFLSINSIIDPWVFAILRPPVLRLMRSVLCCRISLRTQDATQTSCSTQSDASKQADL

For the compound `CCCCCCCCCNC(=O)c1coc(C2C3CCC(O3)C2Cc2cc(F)ccc2/C=C/C(=O)O)n1` (stereo not drawn) [Example 3], the “FP (PG antagonist activity)” value in experiment [1] amounted to 230. Moreover, the “EP4 (PG antagonist activity)” value in [2] is reported as 180. In [3], the “TP (PG antagonist activity)” value is on record as under 1. Moreover, the “EP1 (PG antagonist activity)” value in experiment [4] came to 4100. Also, in experiment [5], the “DP (PG antagonist activity)” value is recorded as 270.

Consider `CCCCCCCCNC(=O)c1coc(C2C3CCC(O3)C2Cc2cc(F)ccc2/C=C/C(=O)O)n1` (stereo not drawn) [Example 2], for which the “FP (PG antagonist activity)” value in experiment [1] is recorded as 300. Besides, in experiment [2], the “EP4 (PG antagonist activity)” value is on record as 120. Besides, the “TP (PG antagonist activity)” value in [3] was under 1. In addition, in experiment [4], the “EP1 (PG antagonist activity)” value is given as 2000. Besides, the “DP (PG antagonist activity)” value in [5] is reported as 220.

In the case of `O=C(O)CCc1ccc(F)cc1C[C@H]1[C@@H]2CCC(O2)[C@H]1c1nc(C(=O)NCCCCC2CCCCC2)co1` [EXAMPLE 8, 3-(2-{(1S,2R,3S)-3-[4-(4-Cyclohexyl-butylcarbamoyl)-oxazol-2-yl]-7-oxa-bicyclo[2.2.1]hept-2-ylmethyl}-4-fluoro-phenyl)-propionic acid], in [6], the “prostanoid receptor selectivity / blockade profile” value is “selective for DP1, EP4, FP and TP receptors”.

With `CCCCCCCCCNC(=O)c1coc(C2C3CC[C@@H](O3)[C@@H]2Cc2cc(F)ccc2CCC(=O)O)n1` (stereo partly drawn) [Example 4, 3-{2R-[3R-(4-Nonylcarbamoyl-oxazol-2-yl)-7-oxa-bicyclo[2.2.1]hept-2-ylmethyl]-4-fluoro-phenyl}-propionic acid], in experiment [7], the “EP2 (PG antagonist activity)” value is 4300. In addition, in [1], the “FP (PG antagonist activity)” value was 12. Moreover, the “EP3 (PG antagonist activity)” value in [8] is on record as 4100. Also, the “EP4 (PG antagonist activity)” value in experiment [2] came to 92. Moreover, the “TP (PG antagonist activity)” value in experiment [3] is under 1. For the same compound, the “EP1 (PG antagonist activity)” value in experiment [4] is 660. The “DP (PG antagonist activity)” value in [5] came out at 17. Besides, in [9], the “IP (PG antagonist activity)” value stood at 1900.

Regarding `O=C(O)/C=C/c1ccc(F)cc1C[C@@H]1C(c2nc(C(=O)NCCCCC3CCCCC3)co2)C2CC[C@H]1O2` (stereo partly drawn) [Example 1, (E)-3-(2R-{3R-[4-(4-Cyclohexyl-butylcarbamoyl)-oxazol-2-yl]-7-oxa-bicyclo[2.2.1]hept-2-ylmethyl}-4-fluoro-phenyl)-acrylic acid], the “FP (PG antagonist activity)” value in experiment [1] came out at 59. Moreover, in experiment [8], the “EP3 (PG antagonist activity)” value is 5500. In addition, in [2], the “EP4 (PG antagonist activity)” value was 60. In experiment [3], the “TP (PG antagonist activity)” value is reported as under 1. Besides, the “EP1 (PG antagonist activity)” value in [4] was found to be 380. For the same compound, the “DP (PG antagonist activity)” value in [5] was determined as 71. Further, the clinical score result in [10] (rat EAU induced by M18 peptide, vs vehicle, EXAMPLE 8, SC-51322 and their combination) is “better clinical score than any of the comparators except the combination”. Also, in experiment [10] (setting [13]), the “amount of invasive cells in the aqueous humor” value is “lower amount” and the “amount of protein in the aqueous humor” value was “lower amount”. Moreover, the “clinical score (angiostatic efficacy)” value in experiment [11] is recorded as “better clinical score than any of the comparators except the combination”.

For the compound `CCCCCCCCNC(=O)c1coc(C2C3CCC(O3)C2Cc2cc(F)ccc2CCC(=O)O)n1` (stereo not drawn) [Example 5], in [1], the “FP (PG antagonist activity)” value amounted to 25. Also, in experiment [8], the “EP3 (PG antagonist activity)” value is 4700. Further, the “EP4 (PG antagonist activity)” value in experiment [2] is listed as 160. For the same compound, in experiment [3], the “TP (PG antagonist activity)” value is given as under 1. The “EP1 (PG antagonist activity)” value in [4] is listed as 1400. The “DP (PG antagonist activity)” value in [5] amounted to 55. Further, in experiment [9], the “IP (PG antagonist activity)” value is listed as 2400.

As to `O=C(CCSCc1ccco1)NNC(=O)N1Cc2ccccc2Oc2ccc(Cl)cc21` [SC-51322], in experiment [12], the “prostanoid receptor blockade profile of comparator” value is on record as “blocks the EP1 receptor, only”.

Regarding `O=C(O)CCc1ccc(F)cc1CC1C2CCC(O2)C1c1nc(C(=O)NCCCCC2CCCCC2)co1` (stereo not drawn) [Example 6], in experiment [1], the “FP (PG antagonist activity)” value is given as 35. Further, the “EP4 (PG antagonist activity)” value in [2] is given as 170. Further, the “TP (PG antagonist activity)” value in experiment [3] is listed as under 1. Moreover, in [4], the “EP1 (PG antagonist activity)” value was determined as 1750. For the same compound, in experiment [5], the “DP (PG antagonist activity)” value was found to be 50.
